Experimental data reported in US8283291B2, “Herbicidal composition” (Kumiai Chemical Industry Co., Ltd., priority 2006, dated 2012).

Tests used:
Test in all cases: Test on herbicidal effects against weeds and phytotoxicity by foliage treatment in upland field
Conditions in all cases: 25 gai/ha, 21st day
[1] = system: redroot pigweed (AMARE); format: in vivo, Amaranthus retroflexus L.
Procedure: (§1) In a plastic pot of 11 cm in length×11 cm in width×11 cm in depth, the upland soil was filled, and seeds of corn (ZEAMX), soybean (GLXMA), greenfoxtail (SETVI), shattercane (SORVU), redroot pigweed (AMARE), Ipomoea lacunosa L. (IPOLA) and velvetleaf (ABUTH) were sown and covered with soil.
(§2) Then, cultivation was carried out in a greenhouse for 10 days. Then, a wettable powder prepared in accordance with Formulation Example 1 was weighed so that active ingredients would be the prescribed amounts, diluted with water and uniformly applied on the soil surface by means of a small size spray at a rate of 500 liter per 1 hectare. Thereafter, cultivation was carried out in a greenhouse, and on the 21st day after the treatment, the herbicidal effects and phytotoxicity were examined in accordance with the standards as identified in Table 15.

[2] = system: greenfoxtail (SETVI); format: in vivo, Setaria viridis
Procedure: as §1, §2

[3] = system: velvetleaf (ABUTH); format: in vivo, Abutilon theophrasti
Procedure: as §1, §2

[4] = system: shattercane (SORVU); format: in vivo, Sorghum vulgare
Procedure: as §1, §2

[5] = system: corn (ZEAMX); format: in vivo
Procedure: as §1
as §2, with “diluted with water and uniformly applied on the soil surface by means of a small size” left out

[6] = system: soybean (GLXMA); format: in vivo
Procedure: as §1
as §2, with “diluted with water and uniformly applied on the soil surface by means of a small size” left out

[7] = system: Ipomoea lacunosa L. (IPOLA); format: in vivo
Procedure: as §1, §2

COCc1cccc(C(O)c2nc(OC)cc(OC)n2)c1NS(=O)(=O)C(F)F (stereo not shown) [Pyrimisulfan]
herbicidal effect AMARE [1]: 10 (Herbicidal effect or phytotoxicity of 100%) | herbicidal effect SETVI [2]: 6 (Herbicidal effect or phytotoxicity of at least 60% and less than 70%) | herbicidal effect ABUTH [3]: 10 (Herbicidal effect or phytotoxicity of 100%) | herbicidal effect SORVU [4]: 8 (Herbicidal effect or phytotoxicity of at least 80% and less than 90%) | phytotoxicity ZEAMX [5]: 2 (Herbicidal effect or phytotoxicity of at least 20% and less than 30%) | phytotoxicity GLXMA [6]: 2 (Herbicidal effect or phytotoxicity of at least 20% and less than 30%) | herbicidal effect IPOLA [7]: 9 (Herbicidal effect or phytotoxicity of at least 90% and less than 100%)
